Assay type in all cases: functional
Experiment [1] relates to Candida tropicalis. Nature of the experiment: Antifungal activity against Candida tropicalis isolate 8 in RPMI 1640 medium by broth dilution susceptibility test. In general terms: Dilution methods test growth across graded concentrations, often in twofold steps.
The test system of experiment [2] is Candida tropicalis. The experiment in a line: Antifungal activity against Candida tropicalis isolate 13 in RPMI 1640 medium by broth dilution susceptibility test.
Experiment [3] relates to Candida tropicalis. The experiment in a line: Antifungal activity against Candida tropicalis isolate 7 in RPMI 1640 medium by broth dilution susceptibility test.
Experiment [4] deals with Candida tropicalis. Nature of the experiment: Antifungal activity against Candida tropicalis isolate 15 in RPMI 1640 medium by broth dilution susceptibility test.
Experiment [5] relates to Candida tropicalis. The experiment in a line: Antifungal activity against Candida tropicalis isolate 4 in RPMI 1640 medium by broth dilution susceptibility test.
Experiment [6] relates to Candida tropicalis. Nature of the experiment: Antifungal activity against Candida tropicalis isolate 5 in RPMI 1640 medium by broth dilution susceptibility test.
The subject of experiment [7] is Candida tropicalis. Nature of the experiment: Antifungal activity against Candida tropicalis isolate 6 in RPMI 1640 medium by broth dilution susceptibility test.
The test system of experiment [8] is Candida tropicalis. Nature of the experiment: Antifungal activity against Candida tropicalis ATCC 750 in RPMI 1640 medium by broth dilution susceptibility test.

≈ marks a conversion by molar mass, not a printed value.

Broadly, the MIC is the lowest concentration found to suppress growth. For `Nc1nc(=O)[nH]cc1F` [FLUCYTOSINE], the MIC in the experiment with Candida tropicalis [1], against Candida tropicalis [2], in the experiment with Candida tropicalis [3], in the experiment with Candida tropicalis [4], in the experiment with Candida tropicalis [5] and with Candida tropicalis [6] was 0.12 µg/mL (≈ 0.93 µM) each time. Moreover, the minimal inhibitory concentration (MIC) against Candida tropicalis [7] and against Candida tropicalis [8] was 0.12 µg/mL (≈ 0.93 µM) in each case.
As for `C[C@@H]1[C@H](O)[C@@H](C)/C=C/C=C/C=C/C=C/C=C/C=C/C=C/[C@H](O[C@@H]2O[C@H](C)[C@@H](O)[C@H](N)[C@@H]2O)C[C@@H]2O[C@](O)(C[C@@H](O)C[C@@H](O)[C@H](O)CC[C@@H](O)C[C@@H](O)CC(=O)O[C@H]1C)C[C@H](O)[C@H]2C(=O)O` [AMPHOTERICIN B], the MIC in the experiment with Candida tropicalis [1], with Candida tropicalis [2], against Candida tropicalis [3], against Candida tropicalis [4], against Candida tropicalis [5] and with Candida tropicalis [6] was 2 µg/mL (≈ 2.16 µM) in each case. Also, the MIC came to 2 µg/mL (≈ 2.16 µM) against Candida tropicalis [7] and 1 µg/mL (≈ 1.08 µM) against Candida tropicalis [8].
Take `OC(Cn1cncn1)(Cn1cncn1)c1ccc(F)cc1F` [FLUCONAZOLE]: the MIC with Candida tropicalis [1] worked out at 0.5 µg/mL (≈ 1.63 µM); against Candida tropicalis [2] it was 0.5 µg/mL (≈ 1.63 µM); against Candida tropicalis [3], 0.25 µg/mL (≈ 0.816 µM); in the experiment on Candida tropicalis [4], 0.25 µg/mL (≈ 0.816 µM); in the experiment with Candida tropicalis [5], 0.5 µg/mL (≈ 1.63 µM); against Candida tropicalis [6] it was 0.25 µg/mL (≈ 0.816 µM). In addition, the MIC in the experiment with Candida tropicalis [7] is 0.25 µg/mL (≈ 0.816 µM); against Candida tropicalis [8] it was 1 µg/mL (≈ 3.27 µM).

The values are drawn from ChEMBL document CHEMBL1153550, “In vitro study of Candida tropicalis isolates exhibiting paradoxical growth in the presence of high concentrations of caspofungin” (2007).
